Measurements as given in patent US20230322706A1, “NOVEL BIARYL DERIVATIVE USEFUL AS DIACYLGLYCEROL ACYLTRANSFERASE 2 INHIBITOR, AND USE THEREOF” (LG CHEM, LTD., priority 2020, published 2023).

Target: human DGAT2 (Homo sapiens (Human), UniProt Q96PD7)
Assay: Measurement of inhibitory effect against DGAT2 enzyme activity (SPA, Phospholipid FlashPlate, [14C]-TG production)
Format: biochemical
Details: recombinant human DGAT2 membrane protein from Sf-21 cells; inhibition of [14C]-TG production; 37° C.
Text: Experimental Example: Measurement of Inhibitory Effect Against DGAT2 Enzyme Activity
1. Preparation of DGAT2 Expression Vector
In order to prepare the pBacPAK9-DGAT2, which is DGAT2 expression vector, the human DGAT2 gene amplified by polymerase chain reaction (PCR) was cloned into the EcoR1 and Xho1 sites of the pBacPAK9 (clonctech) vector. The nucleotide sequence of the primers used in PCR was the forward primer 5′ […] and the reverse primer 5′ […]. The composition of the reaction solution was to contain 50 ng of cDNA clone (OriGene), 200 μM of dATP, dCTP, dTTP, dGTP, 200 nM of each primer, 1 unit of Tag DNA Polymerase (Toyobo), 1x PCR buffer, and the final volume was adjusted to 20 μl. The reaction conditions were denatured at 95° C. for 5 minutes, followed by 30 times of 94° C. for 20 seconds, 60° C. for 20 seconds, and 72° C. for 90 seconds, followed by further reaction at 72° C. for 7 minutes.
2. DGAT2 Expression and Preparation of Membrane Protein
Recombinant human DGAT2 protein was expressed in Sf-21 cells, which are insect cells, by using the BacPack baculovirus expression system (Clontech). The brief manufacturing process is as follows. First, the pBacPAK9-DGAT2 expression vector was transfected with BacPAK6 virus DNA (Bsu36I digest) into sf21 cells using Bacfectin to prepare a recombinant DGAT2 expressing baculovirus. The thus prepared baculovirus was infected with Sf-21 cells at 10 MOI (multiplicity of infection), and after 72 hours, infected insect cells were collected and membrane proteins were isolated. For membrane protein separation, the cell pellet was dissolved in a sucrose solution containing 250 mM sucrose, 10 mM Tris (pH 7.4), and 1 mM ethylenediamine-tetraacetic acid (EDTA), and then homogenized by using a dounce homogenizer, and the supernatant was taken by centrifuging at 600×g for 15 minutes, and centrifuged at 100,000×g for 1 hour to discard the supernatant, and the remaining pellet was resuspended in 20 mM HEPES buffer (pH 7.4). The prepared DGAT2 overexpressing membrane protein was dispensed in 100 μl and stored at −80° C. until use. Protein concentration was quantified by using the BCA Protein Assay Kit (Thermo Scientific).
3. Measurement of Inhibitory Effect Against DGAT2 Enzyme Activity
In vitro DGAT2 analysis was performed using a Phospholipid Flash Plate (PerkinElmer) based on the principle of SPA (Scintilation Proximity Assay). First, DGAT2 inhibition compounds serially diluted 5 times from 3 nM to 10 μM (final concentration, 1% DMSO) were mixed in a buffer solution containing 2 μg DGAT2-membrane protein and 20 mM HEPES, 20 mM MgCl2, 1 mg/mL BSA, 50 μM 1,2 sn-oleoyl glycerol (Sigma), put in a 96-well flash plate (FlashPlate) and reacted at 37° C. for 20 minutes, and then 1 μM [14C] ole oil CoA (PerkinElmer, NEC651050UC) was added to be a final volume of 100 μL and further reacted at 37° C. for 15 minutes. After the enzymatic reaction was completed, 100 μL of isopropanol was added, the plate was sealed with a film, and the plate was shaken slowly in a plate shaker. The next day, the amplified scintillation signal (cpm) in Topcounter (Packard) was measured to measure the degree of production of [14C]-labeled triacyl glycerol (TG) as a reaction product. The measured value when the compound was not treated was used as a positive control, and the measured value of the compound treated group was calculated as a relative % to measure the inhibition effect of the compound on TG production. The IC50 value, which is the concentration of the compound that inhibits TG production by 50%, was determined by treating the response value according to the compound concentration with a nonlinear regression curve using PRISM (Graphpad Inc.).

Sequence of human DGAT2 (Q96PD7 whole entry): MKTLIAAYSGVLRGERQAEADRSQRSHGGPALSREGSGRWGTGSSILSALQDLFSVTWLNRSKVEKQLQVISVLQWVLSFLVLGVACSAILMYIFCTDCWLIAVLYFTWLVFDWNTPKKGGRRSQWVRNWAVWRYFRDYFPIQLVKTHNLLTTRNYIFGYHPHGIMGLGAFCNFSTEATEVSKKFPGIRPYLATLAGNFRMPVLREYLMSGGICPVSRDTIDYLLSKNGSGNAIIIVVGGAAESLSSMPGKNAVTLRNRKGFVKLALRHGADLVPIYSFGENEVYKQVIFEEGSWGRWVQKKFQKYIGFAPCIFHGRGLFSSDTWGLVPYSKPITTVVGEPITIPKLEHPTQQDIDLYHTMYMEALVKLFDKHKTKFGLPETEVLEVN

CCOc1cccnc1Oc1cccc(-c2cncc(NC(=O)CCc3ccc(OC(C)(C)C(=O)O)cc3)n2)c1 [Example 28, 2-(4-(3-((6-(3-((3-ethoxypyridin-2-yl)oxy)phenyl)pyrazin-2-yl)amino)-3-oxopropyl)phenoxy)-2-methylpropanoic acid]
IC50: 210 nM

CCOc1ccccc1Oc1cccc(-c2cncc(Nc3nccc(N4CCC[C@@H](C(=O)O)C4)n3)n2)n1 [Example 24, (R)-1-(2-((6-(6-(2-ethoxyphenoxy)pyridin-2-yl)pyrazin-2-yl)amino)pyrimidin-4-yl)piperidine-3-carboxylic acid]
IC50: 7400 nM

CCOc1ccccc1Oc1cccc(-c2cncc(NC(=O)Cc3ccc(CC(C)(C)C(=O)O)cc3)n2)n1 [Example 23, 3-(4-(2-((6-(6-(2-ethoxyphenoxy)pyridin-2-yl)pyrazin-2-yl)amino)-2-oxoethyl)phenyl)-2,2-dimethylpropanoic acid]
IC50: 61 nM

CCOc1cccnc1Oc1cccc(-c2cncc(NC(=O)Cc3ccc(CC(C)(C)C(=O)O)cc3)n2)c1 [Example 27, 3-(4-(2-((6-(3-((3-ethoxypyridin-2-yl)oxy)phenyl)pyrazin-2-yl)amino)-2-oxoethyl)phenyl)-2,2-dimethylpropanoic acid]
IC50: 7.4 nM

CCOc1ccccc1Oc1cccc(-c2cncc(Nc3cccc(-c4cccc(CC(C)(C)C(=O)O)c4)n3)n2)n1 [Example 25, 3-(3-(6-((6-(6-(2-ethoxyphenoxy)pyridin-2-yl)pyrazin-2-yl)amino)pyridin-2-yl)phenyl)-2,2-dimethylpropanoic acid]
IC50: 450 nM

CCOc1ccccc1Oc1cncc(-c2cncc(NC(=O)CCc3ccc(C(C)(C)C(=O)OC)cc3)n2)c1 [Example 5, methyl 2-(4-(3-((6-(5-(2-ethoxyphenoxy)pyridin-3-yl)pyrazin-2-yl)amino)-3-oxopropyl)phenyl)-2-methylpropanoate]
IC50: 11 nM

CCOc1ccccc1Oc1cncc(-c2cncc(NC(=O)CCc3ccc(CC(=O)O)cc3)n2)c1 [Example 4, 2-(4-(3-((6-(5-(2-ethoxyphenoxy)pyridin-3-yl)pyrazin-2-yl)amino)-3-oxopropyl)phenyl)acetic acid]
IC50: 290 nM

CCOc1ccccc1Oc1cncc(-c2cncc(NC(=O)CCc3ccccc3)n2)c1 [Example 1, N-(6-(5-(2-ethoxyphenoxy)pyridin-3-yl)pyrazin-2-yl)-3-phenylpropanamide]
IC50: 35 nM

CCOc1cccnc1Oc1cccc(-c2cncc(Nc3nccc(O[C@H]4CC[C@H](C(=O)O)CC4)n3)n2)c1 [Example 33, (1r,4r)-4-((2-((6-(3-((3-ethoxypyridin-2-yl)oxy)phenyl)pyrazin-2-yl)amino)pyrimidin-4-yl)oxy)cyclohexane-1-carboxylic acid]
IC50: 3400 nM

CCOc1ccccc1Oc1cncc(-c2cncc(NC(=O)Cc3ccc(CC(C)(C)C(=O)O)cc3)n2)c1 [Example 7, 3-(4-(2-((6-(5-(2-ethoxyphenoxy)pyridin-3-yl)pyrazin-2-yl)amino)-2-oxoethyl)phenyl)-2,2-dimethylpropanoic acid]
IC50: 36 nM

CCOc1ccccc1Oc1cccc(-c2cncc(NC(=O)CCc3ccc(OC(C)(C)C(=O)O)cc3)n2)c1 [Example 13, 2-(4-(3-((6-(3-(2-ethoxyphenoxy)phenyl)pyrazin-2-yl)amino)-3-oxopropyl)phenoxy)-2-methylpropanoic acid]
IC50: 330 nM

CCOc1ccccc1Oc1cccc(-c2cncc(NC(=O)C(C)(C)c3ccc(CC(C)(C)C(=O)O)cc3)n2)c1 [Example 18, 3-(4-(1-((6-(3-(2-ethoxyphenoxy)phenyl)pyrazin-2-yl)amino)-2-methyl-1-oxopropan-2-yl)phenyl)-2,2-dimethylpropanoic acid]
IC50: 22 nM

CCOc1ccccc1Oc1cncc(-c2cncc(NC(=O)Cc3ccc(CC(=O)OC)cc3)n2)c1 [Example 2, methyl 2-(4-(2-((6-(5-(2-ethoxyphenoxy)pyridin-3-yl)pyrazin-2-yl)amino)-2-oxoethyl)phenyl)acetate]
IC50: 27 nM

CCOc1ccccc1Oc1cncc(-c2cncc(NC(=O)Cc3ccc(CC(=O)O)cc3)n2)c1 [Example 3, 2-(4-(2-((6-(5-(2-ethoxyphenoxy)pyridin-3-yl)pyrazin-2-yl)amino)-2-oxoethyl)phenyl)acetic acid]
IC50: 3400 nM

CCOc1cccnc1Oc1cccc(-c2cncc(NC(=O)C(C)(C)c3ccc(CC(C)(C)C(=O)O)cc3)n2)c1 [Example 29, 3-(4-(1-((6-(3-((3-ethoxypyridin-2-yl)oxy)phenyl)pyrazin-2-yl)amino)-2-methyl-1-oxopropane-2-yl)phenyl)-2,2-dimethylpropanoic acid]
IC50: 6.7 nM

CCOc1ccccc1Oc1cccc(-c2cncc(NC(=O)Cc3ccc(CC(C)(C)C(=O)O)cc3)n2)c1 [Example 15, 3-(4-(2-((6-(3-(2-ethoxyphenoxy)phenyl)pyrazin-2-yl)amino)-2-oxoethyl)phenyl)-2,2-dimethylpropanoic acid]
IC50: 13 nM

CCOc1cccnc1Oc1cccc(-c2cncc(NC(=O)CCc3ccc(C(C)(C)C(=O)O)cc3)n2)c1 [Example 26, 2-(4-(3-((6-(3-((3-ethoxypyridin-2-yl)oxy)phenyl)pyrazin-2-yl)amino)-3-oxopropyl)phenyl)-2-methylpropanoic acid]
IC50: 21 nM

CCOc1ccccc1Oc1cncc(-c2cncc(Nc3cccc(-c4cccc(CC(C)(C)C(=O)O)c4)n3)n2)c1 [Example 9, 3-(3-(6-((6-(5-(2-ethoxyphenoxy)pyridin-3-yl)pyrazin-2-yl)amino)pyridin-2-yl)phenyl)-2,2-dimethylpropanoic acid]
IC50: 160 nM

CCOc1ccccc1Oc1cccc(-c2cncc(Nc3nccc(O[C@H]4CC[C@H](C(=O)O)CC4)n3)n2)c1 [Example 21, (1r,4r)-4-((2-((6-(3-(2-ethoxyphenoxy)phenyl)pyrazin-2-yl)amino)pyrimidin-4-yl)oxy)cyclohexane-1-carboxylic acid]
IC50: 1200 nM

CCOc1cccnc1Oc1cccc(-c2cncc(Nc3cccc(-c4cccc(CC(C)(C)C(=O)O)c4)n3)n2)c1 [Example 32, 3-(3-(6-((6-(3-((3-ethoxypyridin-2-yl)oxy)phenyl)pyrazin-2-yl)amino)pyridin-2-yl)phenyl)-2,2-dimethylpropanoic acid]
IC50: 70 nM

CCOc1ccccc1Oc1cccc(-c2cncc(NC(=O)Cc3ccc(OC(C)(C)C(=O)O)cc3)n2)c1 [Example 19]
IC50: 430 nM

CCOc1ccccc1Oc1cncc(-c2cncc(Nc3nccc(N4CCC[C@@H](C(=O)O)C4)n3)n2)c1 [Example 8, (R)-1-(2-((6-(5-(2-ethoxyphenoxy)pyridin-3-yl)pyrazin-2-yl)amino)pyrimidin-4-yl)piperidine-3-carboxylic acid]
IC50: 1800 nM

CCOc1ccccc1Oc1cccc(-c2cncc(Nc3nccc(-c4ccc(CC(=O)O)cc4)n3)n2)c1 [Example 20, 2-(4-(2-((6-(3-(2-ethoxyphenoxy)phenyl)pyrazin-2-yl)amino)pyrimidin-4-yl)phenyl)acetic acid]
IC50: 3900 nM

CCOc1cccnc1Oc1cccc(-c2cncc(Nc3nccc(N4CCC[C@@H](C(=O)O)C4)n3)n2)c1 [Example 31, (R)-1-(2-((6-(3-((3-ethoxypyridin-2-yl)oxy)pheny)pyrazin-2-yl)amino)pyrimidin-4-yl)piperidine-3-carboxylic acid]
IC50: 9200 nM

CCOc1ccccc1Oc1cccc(-c2cncc(NC(=O)CCc3ccccc3)n2)n1 [Example 22, N-(6-(6-(2-ethoxyphenoxy)pyridin-2-yl)pyrazin-2-yl)-3-phenylpropanamide]
IC50: 2100 nM
